Assay results from patent US5481013A, “Carboxylic acid derivatives” (Ciba-Geigy Corporation, priority 1992, dated 1996).

Experiments:
Format in all cases: in vivo
Dermanyssus gallinae = test: Activity against Dermanyssus gallinae; conditions: 72 h, 10 ppm solution, mites in different development stages, after 3 days
Protocol: 2 to 3 ml of a solution comprising 10 ppm of active ingredient and approximately 200 mites in different development stages are placed into a glass container which is open at the top. The container is then sealed with a cottonwool ball, shaken for 10 minutes until the mites are wetted completely, and then briefly turned over so that the remaining test solution can be absorbed by the cottonwool. After 3 days, the mortality of the mites is determined by counting the dead individuals; it is given as a percentage.

Ctenocephalides felis = test: Activity against Ctenocephalides felis; conditions: 504 h, 100 ppm in flea larvae nutrient medium, flea eggs, checked after 21 days
Protocol: 20 to 25 flea eggs are placed into a horizontally positioned 50 ml tissue culture flask into which 15 g of flea larvae nutrient medium comprising 100 ppm of the active ingredient to be tested have previously been introduced. The test flasks are incubated in an incubator at 26° to 27° C. and an atmospheric humidity of 60-70%. After 21 days, the flasks are checked for the presence of adult fleas, unhatched pupae and larvae.

Nephotettix cincticeps [1] = test: Activity against Nephotettix cincticeps (spray on rice plants); conditions: 504 h, 400 ppm spray on rice plants, larvae in stages 2 and 3, evaluated 21 days later, read-out: percentage reduction in population (% activity)
Protocol: Rice plants are treated with a spray mixture prepared with an aqueous emulsion and comprising 400 ppm of the active ingredient. After the spray coating has dried on, the rice plants are populated with leaf hopper larvae in stages 2 and 3. The test is evaluated 21 days later. The percentage reduction in population (% activity) is determined by comparing the number of surviving leaf hoppers on the treated plants with those on the untreated plants.

[2] = test system: Heliothis virescens caterpillars; test: Activity against Heliothis virescens caterpillars; conditions: 144 h, 400 ppm spray on young soybean plants, first larval stage, evaluated after 6 days, read-out: percentage reduction in population or in feeding damage (% activity)
Protocol: Young soybean plants are sprayed with a spray mixture prepared with an aqueous emulsion and comprising 400 ppm of the active ingredient. After the spray coating has dried on, the soybean plants are populated with 10 Heliothis virescens in the first larval stage and placed into a plastic container. The test is evaluated after 6 days. The percentage reduction in population, or the percentage reduction in feeding damage (% activity), is determined by comparing the number of dead caterpillars and the feeding damage on the treated plants with those on the untreated plants.

[3] = test system: Panonychus ulmi (OP- and carb.- resistant); test: Activity against Panonychus ulmi (OP- and carb.- resistant); conditions: 336 h, 400 ppm spray on apple seedlings, evaluated after 14 days, read-out: percentage reduction in population (% activity)
Protocol: Apple seedlings are populated with adult females of Panonychus ulmi. After seven days, the infested plants are sprayed to drip point with an aqueous emulsion comprising 400 ppm of the test compound and grown in the greenhouse. The test is evaluated after 14 days. The percentage reduction in population (% activity) is determined by comparing the number of dead spider mites on the treated plants with those on the untreated plants. […] An activity of over 80% is shown, in particular, by compound Nos. 1.01, 2.01, 2.07, 2.08, 2.10, 2.12 to 2.16, 2.22, 2.23, 2.26, 3.01, 4.01, 4.02, 4.06, 5.01 to 5.03, 5.05, 5.06, 5.08, 5.10, 5.11, 5.15, 5.16 and 5.20 to 5.25.

Bemisia tabaci = test: Activity against Bemisia tabaci; conditions: 336 h, 400 ppm spray on dwarf bean plants with nymphs, evaluated 14 days after application, read-out: activity (hatching percentages vs untreated control)
Protocol: Dwarf bean plants are placed into gauze cages and populated with adult Bemisia tabaci specimens (white fly). After oviposition has taken place, all adults are removed and, 10 days later, the plants with the nymphs located thereon are treated with a spray mixture of the active ingredients to be tested (concentration 400 ppm), which has been prepared with an aqueous emulsion. The test is evaluated for hatching percentages 14 days after the active ingredient has been applied by comparison with the untreated control batches. […] An activity of over 80% is shown, in particular, by compound Nos. 1.01, 2.01 to 2.08, 2.10 to 2.16, 2.22, 2.23, 3.01, 4.01, 4.02, 4.05, 4.06, 5.02, 5.03, 5.06 to 5.08, 5.10, 5.11, 5.20, 5.21 and 6.09.

Nephotettix cincticeps [4] = test: Systemic activity against Nephotettix cincticeps; conditions: 144 h, pots with rice plants in 400 ppm aqueous emulsion solution, larvae in stages 2 and 3, evaluated after 6 days, read-out: percentage reduction in population (% activity)
Protocol: Pots containing rice plants are placed into an aqueous emulsion solution comprising 400 ppm of the active ingredient. The rice plants are subsequently populated with larvae in stages 2 and 3. The test is evaluated after 6 days. The percentage reduction in population (% activity) is determined by comparing the number of leaf hoppers on the treated plants with those on the untreated plants.

Nilaparvata lugens [5] = test: Activity against Nilaparvata lugens (spray on rice plants); conditions: 504 h, 400 ppm spray on rice plants, larvae in stages 2 and 3, evaluated after 21 days, read-out: percentage reduction in population (% activity)
Protocol: Rice plants are treated with a spray mixture prepared with an aqueous emulsion and comprising 400 ppm of the active ingredient. After the spray coating has dried on, the rice plants are populated with plant hopper larvae in stages 2 and 3. The test is evaluated after 21 days. The percentage reduction in population (% activity) is determined by comparing the number of surviving plant hoppers on the treated plants with the number of plant hoppers on the untreated plants. […] An activity of over 80% is shown, in particular, by compound Nos. 1.01, 2.01 to 2.03, 2.07, 2.08, 2.10 to 2.16, 2.20, 2.22, 2.23, 2.26, 3.01, 4.01 to 4.06, 4.20, 5.01 to 5.06, 5.08, 5.10 to 5.12, 5.15, 5.16 and 5.20 to 5.25.

Heliothis virescens = test: Ovicidal/larvicidal activity on Heliothis virescens; conditions: 192 h, 400 ppm spray on eggs deposited on cotton, evaluated after 8 days, read-out: % reduction in population (hatching percentage of eggs and survival rate of caterpillars)
Protocol: Heliothis eggs which have been deposited on cotton are sprayed with a spray mixture prepared with an aqueous emulsion and comprising 400 ppm of the active ingredient. After 8 days, the hatching percentage of the eggs and the survival rate of the caterpillars are evaluated by comparing them with untreated control batches (% reduction in population).

Tetranychus urticae = test: Activity against Tetranychus urticae; conditions: 144 h, 400 ppm spray on young bean plants, mixed population, 6 days at 25° C, read-out: percentage reduction in population (% activity)
Protocol: Young bean plants are populated with a mixed population of Tetranychus urticae and, after 1 day, sprayed with a spray mixture prepared with an aqueous emulsion and comprising 400 ppm of the active ingredient. The plants are subsequently incubated for 6 days at 25° C and then evaluated. The percentage reduction in population (% activity) is determined by comparing the number of dead eggs, larvae and adults on the treated plants with those on the untreated ones.

Nilaparvata lugens [6] = test: Systemic activity against Nilaparvata lugens; conditions: 144 h, pots with rice plants in 400 ppm aqueous emulsion solution, larvae in stages 2 and 3, evaluated 6 days later, read-out: percentage reduction in population (% activity)
Protocol: Pots containing rice plants are placed into an aqueous emulsion solution comprising 400 ppm of the active ingredient. The rice plants are subsequently populated with larvae in stages 2 and 3. The test is evaluated 6 days later. The percentage reduction in population (% activity) is determined by comparing the numbers of plant hoppers on the treated plants with those on the untreated plants.

Aphis craccivora = test: Activity against Aphis craccivora; conditions: 400 ppm spray on pea seedlings, 20° C., evaluated after 3 and 6 days, read-out: percentage reduction in population (% activity)
Protocol: Pea seedlings are infected with Aphis craccivora, subsequently sprayed with a spray mixture comprising 400 ppm of the active ingredient, and incubated at 20° C. The test is evaluated after 3 and 6 days. The percentage reduction in population (% activity) is determined by comparing the number of dead aphids on the treated plants with those on the untreated plants.

adult Anthonomus grandis = test: Activity against adult Anthonomus grandis; conditions: 72 h, 400 ppm spray on young cotton plants, adults, evaluated after 3 days, read-out: percentage reduction in population or in feeding damage (% activity)
Protocol: Young cotton plants are sprayed with a spray mixture prepared with an aqueous emulsion and comprising 400 ppm of the active ingredient. After the spray coating has dried on, the cotton plants are populated with 10 adult Anthonomus grandis and placed into a plastic container. The test is evaluated after 3 days. The percentage reduction in population, or the percentage reduction in feeding damage (% activity), is determined by comparing the number of dead beetles and the feeding damage on the treated plants with those on the untreated plants.

[7] = test system: Crocidolomia binotalis caterpillars; test: Activity against Crocidolomia binotalis caterpillars; conditions: Brassica oleracea, 72 h; 400 ppm spray on young cabbage plants, third larval stage, evaluated after 3 days; read-out: percentage reduction in population or in feeding damage (% activity)
Protocol: Young cabbage plants are sprayed with a spray mixture prepared with an aqueous emulsion and comprising 400 ppm of the active ingredient. After the spray coating has dried on, the cabbage plants are infested with 10 Crocidolomia binotalis in the third larval stage and placed into a plastic container. The test is evaluated after 3 days. The percentage reduction in population, or the percentage reduction in feeding damage (% activity), is determined by comparing the number of dead caterpillars and the feeding damage on the treated plants with those on the untreated plants.

Cc1nsc(Oc2ccc(OCCOC(=O)CCCCCCCC=C(F)F)cc2)n1 [Compound 4.04]
> 80%: mortality at 10 ppm (Dermanyssus gallinae) | pest or weed control at 100 ppm (Ctenocephalides felis)

O=C(CCCCCCCC=C(F)F)OCCOc1ccc(Sc2ccccc2)cc1 [Compound 4.02]
> 80%: mortality at 10 ppm (Dermanyssus gallinae) | activity at 400 ppm (Nephotettix cincticeps [1]) | activity at 400 ppm [2] | activity at 400 ppm [3] | pest or weed control at 400 ppm (Bemisia tabaci) | activity at 400 ppm (Nephotettix cincticeps [4])

O=C(CCCCCCCC=C(F)F)OCCOc1ccc(Oc2ccccc2)cc1 [Compound 4.01]
> 80%: mortality at 10 ppm (Dermanyssus gallinae) | activity at 400 ppm (Nephotettix cincticeps [1]) | activity at 400 ppm [2] | activity at 400 ppm [3] | pest or weed control at 400 ppm (Bemisia tabaci) | activity at 400 ppm (Nephotettix cincticeps [4])

CC(C)(C)c1ccc(COc2ccc(OCCOC(=O)CCCC=C(F)F)cc2)cc1 [Compound 2.26]
> 80%: pest or weed control at 100 ppm (Ctenocephalides felis) | activity at 400 ppm (Nilaparvata lugens [5]) | activity at 400 ppm (Nephotettix cincticeps [1]) | activity at 400 ppm [2] | pest or weed control at 400 ppm (Heliothis virescens) | activity at 400 ppm (Tetranychus urticae) | activity at 400 ppm [3] | activity at 400 ppm (Nilaparvata lugens [6])

O=C(CCCC=C(F)F)OCCOc1ccc(OC(=O)c2ccccc2)cc1 [Compound 2.22]
> 80%: pest or weed control at 100 ppm (Ctenocephalides felis) | activity at 400 ppm (Nilaparvata lugens [5]) | activity at 400 ppm [2] | pest or weed control at 400 ppm (Heliothis virescens) | activity at 400 ppm (Tetranychus urticae) | activity at 400 ppm [3] | pest or weed control at 400 ppm (Bemisia tabaci) | activity at 400 ppm (Nilaparvata lugens [6]) | activity at 400 ppm (Aphis craccivora)

O=C(CCCCCCCCCC=C(F)F)OCCOc1ccc(OCc2ccc(Cl)cc2)cc1 [Compound 5.08]
> 80%: pest or weed control at 100 ppm (Ctenocephalides felis) | activity at 400 ppm (Nilaparvata lugens [5]) | activity at 400 ppm (Tetranychus urticae) | activity at 400 ppm [3]

CC(COC(=O)CCCCCCCC=C(F)F)Oc1ccc(Oc2ccccc2)cc1 (centres unmarked) [Compound 4.06]
> 80%: mortality at 10 ppm (Dermanyssus gallinae) | activity at 400 ppm (Nephotettix cincticeps [1]) | activity at 400 ppm [2] | activity at 400 ppm [3] | pest or weed control at 400 ppm (Bemisia tabaci) | activity at 400 ppm (Nephotettix cincticeps [4])

O=C(CCCC=C(F)F)OCCOc1ccc(OC(=O)Oc2ccccc2)cc1 [Compound 2.23]
> 80%: pest or weed control at 100 ppm (Ctenocephalides felis) | activity at 400 ppm (Nilaparvata lugens [5]) | activity at 400 ppm (Nephotettix cincticeps [1]) | activity at 400 ppm [2] | pest or weed control at 400 ppm (Heliothis virescens) | activity at 400 ppm (Tetranychus urticae) | activity at 400 ppm [3] | pest or weed control at 400 ppm (Bemisia tabaci) | activity at 400 ppm (Nilaparvata lugens [6]) | activity at 400 ppm (Aphis craccivora)

O=C(CCCCCCCCCC=C(F)F)OCCOc1ccc(Sc2ccccc2)cc1 [Compound 5.02]
> 80%: activity at 400 ppm (adult Anthonomus grandis) | activity at 400 ppm [7] | pest or weed control at 400 ppm (Bemisia tabaci)

O=C(CCCCCCCCCC=C(F)F)OCCOc1ccc(Oc2ccccc2)cc1 [Compound 5.01]
> 80%: activity at 400 ppm (adult Anthonomus grandis) | activity at 400 ppm [7]

O=C(CCCCCCCCCC=C(F)F)OCCOc1ccc(OCc2cccc(F)c2)cc1 [Compound 5.24]
> 80%: activity at 400 ppm (Nephotettix cincticeps [1]) | activity at 400 ppm [2] | activity at 400 ppm (Nephotettix cincticeps [4])
